Results taken from paper PMC6143625, “A high throughput screen for next-generation leads targeting malaria parasite transmission” (Nature Communications, 2018).

Experiments:
[1] = system: Stage IV–V 3D7 gametocytes; test: Gametocytocidal ATP-based bioluminescence assay (GC-ATP); assay type: cell-based, Plasmodium falciparum 3D7; details: for IC50: Plasmodium falciparum, 3D7, 48h incubation, read-out: Pf late stage gametocyte (ATP depletion) IC50
Protocol: The metabolic viability of late stage gametocytes was determined using a gametocyte ATP bioluminescence assay. Stage IV–V 3D7 gametocyte cultures were double-purified by density gradient sedimentation over NycoPrep® followed by magnetic isolation. Then, parasites (50 µl per well containing 12,500 gametocytes) were added to compound pre-dispensed 384-well plates (781091, Greiner) and incubated at 37 °C for 48 h under 5% CO2/3% O2/92% N2. BacTiter-Glo® kit (G8231, Promega) was used to determine the ATP levels of viable parasites according to manufacturer’s instructions. After reagent addition (50 µl per well), luminescence of the plates was measured using a microplate reader (HTS counter Victor, Wallac).

NF54 stage V gametocytes = test: Gametocytocidal MitoTracker-based viability assay (SaLSSA); assay type: cell-based, Plasmodium falciparum NF54; details: for IC50: Plasmodium falciparum, NF54, 72h incubation, read-out: Pf Stage V GCT (mitotracker assay) IC50
Protocol: As another independent assessment of the metabolic viability of compound-treated stage V gametocytes, the Saponin-lysis Sexual Stage Assay (SaLSSA) was employed. A volume of 100 nl of test compounds were pre-dispensed in 384-well plates (781091-2B, Greiner) in 12-point dose response (25 µM to 1.41 × 10^−4 µM), prior to the addition of synchronous NF54 stage V gametocytes (40 µl at 0.70% gametocytaemia). Assay plates were then incubated for 72 h in a low oxygen environment (92% N2, 5% CO2, 3%O2) before a 10 µl MitoTracker Red CMXRos (2.5 µM) and saponin solution (0.13%w/v) was added. Plates were returned to 37 °C for 1 h to allow for complete red blood cell lysis, after which viable gametocytes were detected using an Operetta high-content imaging system. Analysis was performed using the Harmony package software, with potency calculated relative to puromycin (positive control) and DMSO (negative control).

[2] = system: P. falciparum male gametocytes; test: Pf DGFA wash-out format, male readout; assay type: cell-based; details: Plasmodium falciparum; 48h preincubation/wash-out
[3] = system: P. falciparum female gametocytes; test: Pf DGFA wash-out format, female readout; assay type: cell-based; details: Plasmodium falciparum; 48h preincubation/wash-out
[4] = system: P. falciparum male gamete formation; test: Pf DGFA add-in format, male readout; assay type: cell-based, Plasmodium falciparum; details: for IC50: Plasmodium falciparum, 0h preincubation/add-in
Protocol: (§1) In profiling mode, the Pf DGFA was performed in 96-well plates[23] in wash-out and add-in formats to aid manual manipulation steps. In the wash-out format, gametocytes were incubated for 24 h with test compounds in round-bottomed 96 well plates and then culture medium replaced three times over 6 h, to remove as much of the compound as possible from the well. […] In add-in format, gametocytes were added directly to flat-bottomed 96-well plates containing test compounds, ookinete medium and anti-Pfs25.

[5] = system: P. falciparum female gamete formation; test: Pf DGFA add-in format, female readout; assay type: cell-based; details: Plasmodium falciparum; 0h preincubation/add-in
Protocol: as §1

[6] = system: P. berghei strain CTRPpGFP early mosquito stage (ookinete) development; test: P. berghei ookinete development assay (Pb ODA); assay type: cell-based, Plasmodium berghei; details: Plasmodium berghei; 24h incubation
Protocol: All mouse procedures were performed in accordance with the UK Animals (Scientific Procedures) Act (PPL 70/7185) and approved by the Imperial College Animal Welfare and Ethical Review Body (AWERB). The ability of test compounds to inhibit P. berghei early mosquito stage development was tested in the Ookinete Development Assay[37] with a few exceptions. Anaesthetised 6- to 8-week-old female Tucks Ordinary (TO) mice infected with P. berghei strain CTRPpGFP[38] were rapidly exsanguinated by cardiac puncture and 500 µl of blood diluted in 25 ml of ookinete medium supplemented with 20% foetal bovine serum. Immediately the blood/medium mixture was dispensed by multichannel pipette into 384 well plates containing pre-plated test compounds. 10 µM cycloheximide and DMSO were used as the positive and negative controls, respectively. Plates were stored in the dark in a humidified incubator at 18 °C for 24 h. Ookinete production was imaged by fluorescence microscopy of GFP expression under the ookinete-specific CTRP promoter using a Nikon Ti-E widefield microscope and ×10 objective. Ookinete production was quantified using ICY and percentage inhibition calculated as above with reference to positive and negative controls.

[7] = system: P. berghei-ANKA-GFP-Luc-SMCON sporozoites in HepG2-A16-CD81EGFP cells; test: P. berghei liver stage assay (luciferase sporozoite HepG2 invasion); assay type: cell-based; details: Plasmodium berghei, 48h incubation, read-out: Pb Liver invasion assay IC50
Protocol: (§2) Compound inhibition of P. berghei sporozoite liver infection was assessed in a high-throughput luciferase assay. 1536-well plates (789173-F, Greiner Bio-One) were pre-seeded with 5 µl HepG2-A16-CD81^EGFP cells grown in DMEM (11965–092, Invitrogen) containing 10% FBS (35–011-CV, Corning) and 1× Pen Strep Glutamine (10378–016, Invitrogen). Then, 50 nl of compound in DMSO was dispensed in 12-point serial dilution dose-response format (50 µM to 2.82 × 10^−4 µM), and incubated overnight.A. stephensi mosquitoes infected with P. berghei-ANKA-GFP-Luc-SMCON (Pb-Luc)[41] sporozoites bearing the antifolate-resistance-conferring Toxoplasma gondii dihydrofolate reductase-thymidylate synthase selectable marker, pyR2. After dissection, ~1000 sporozoites in 5 µl screening media (DMEM, 11965–092, Invitrogen; 5% FBS, 35–011-CV, Corning; 5x Pen Strep Glutamine, 10378–016, Invitrogen) were added per well and incubated for 48 h (37 °C, 5% CO2). Bioluminescence was measured using an EnVision microplate reader (Perkin Elmer), following the addition of 2 µl per well of Bright-Glo™ (Promega). Compound toxicity against HepG2 cells was determined in parallel by measuring cellular ATP levels reported by luciferase activity. Methods were similar to the P. berghei liver stage assay, except for the addition of CellTiter-Glo® (Promega) as a detection reagent. DMSO (0.5%) was used as a negative control in both assays, with Atovaquone (5 µM) and Puromycin (10 µM) acting as positive controls in the P. berghei and toxicity assays, respectively.

HepG2 cells = test: HepG2 toxicity (CellTiter-Glo, parallel to liver stage assay); assay type: cell-based, human; details: human, 48 h
Protocol: as §2

[8] = system: P. falciparum stage V male gametocytes (male gamete formation); test: P. falciparum dual gamete formation assay (Pf DGFA), male readout (exflagellation), 48 h carry-over format; assay type: cell-based, Plasmodium falciparum NF54; details: Plasmodium falciparum, 24h preincubation/carry-over
HepG2 human cells = system: HepG2 human cells; parameters: method as in http://dx.doi.org/10.6019/CHEMBL3507680; details: ref http://dx.doi.org/10.6019/CHEMBL3507680; cited from earlier work

| SMILES | IC50 [1] [µM] | IC50 (NF54 stage V gametocytes) [µM] | IC50 [2] [µM] | IC50 [3] [µM] | IC50 [4] [µM] | IC50 [5] [µM] | IC50 [6] [µM] | IC50 [7] [µM] | Human HepG2 assay TOX50 (HepG2 cells) [µM] | IC50 [8] [µM] | %Inh HepG2 @10uM (HepG2 human cells) [%] | activity in the GC-ATP assay ([1]; profiling) | activity in the mitotracker assay (NF54 stage V gametocytes; profiling) | activity in the add-in format ([4]; profiling) |
| --- | --- | --- | --- | --- | --- | --- | --- | --- | --- | --- | --- | --- | --- | --- |
| O=S(=O)(NCC1(O)CCOc2ccccc21)c1cccs1 (stereo not drawn) [DDD01035879] | > 10 | > 25 | > 12.5 | > 12.5 | 0.28 | > 10 | 0.29 | > 50 | >50.0 | 0.89 | 3.15 | – | – | – |
| CC(NCC1CCN(CCO)CC1)c1ccc(OC(F)(F)F)cc1 (stereo not drawn) [DDD01073716] | > 10 | 7.07 | 1.08 | 1.22 | > 10 | > 10 | > 25 | 15.5 | >50.0 | 11 | -2.01 | – | – | – |
| CN1CCC(NCC(O)c2cccc(OCc3ccccc3)c2)CC1 (stereo not drawn) [DDD01079164] | 6.29 | 4.97 | 1.3 | 1.07 | > 10 | > 10 | > 25 | 16.5 | 38.40 | 6.04 | 4.18 | – | – | – |
| OC1(CN2CCC(Oc3cccc(C(F)(F)F)c3)CC2)CCNC1 (stereo not drawn) [DDD01245291] | > 10 | > 12.5 | 0.68 | 1.51 | > 10 | > 10 | > 25 | 6.06 | 21.70 | 5.99 | -7.31 | – | – | – |
| CC(C)CN1CCn2nc(CNc3ncnc4[nH]ccc34)cc2C1 [DDD01249504] | > 10 | > 25 | 2.74 | > 25 | > 10 | > 10 | > 25 | > 50 | >50.0 | 1.83 | 7.26 | – | – | – |
| Cc1nn(C)c(Oc2ccc(Cl)cc2)c1CN1CCC(CN)C1 (stereo not drawn) [DDD01254274] | 6.86 | > 12.5 | 2.84 | > 25 | > 10 | > 10 | > 25 | > 50 | >50.0 | > 25 | -8.55 | – | – | – |
| CCc1ccc(C2c3nc[nH]c3CCN2Cc2nccn2CC)nc1 (stereo not drawn) [DDD01254473] | 0.53 | 0.08 | 5.74 | 0.71 | > 10 | > 10 | > 12.5 | > 50 | >50.0 | > 25 | 33.1 | submicromolar | submicromolar | – |
| CCOc1ccc2ccccc2c1CNCC1CCNCC1.Cl.Cl [DDD01255740] | > 10 | 3.57 | 0.67 | 1.65 | > 10 | > 10 | > 12.5 | 13.2 | >50.0 | 4.1 | 9.2 | – | – | – |
| Cc1ccc(-c2cc(C(=O)NCCC3=CCCCC3)[nH]n2)o1 [DDD01255968] | > 10 | > 25 | 2.19 | > 12.5 | 0.32 | > 10 | > 12.5 | 17.6 | >50.0 | 1.17 | -10.6 | – | – | active |
